# Structures can show the parent of a compound that is named as a salt.
# Columns and labels:
# KIM-1 = conditions: published in vivo data; ref Vaidya et al. [2006]; cited from earlier work
# M-CSF = test system: M-CSF; set-up: key: +: statistically significant increase; −: no significant increase; conditions: published in vivo data; ref Razzaque and Taguchi [2002]; Menke et al. [2009]; cited from earlier work
# [1] = Resazurin cytotoxicity assay in HK-2 cells; format: cell-based, human; conditions: human, HK-2 cells; 72 h incubation; Mean ± Standard deviation, n = 3
# Experimental: (§1) For the MTT assay, the medium was then removed, the dried crystals were resuspended in 60 μL of Dimethyl sulfoxide (DMSO), and the absorbance was read at 570 nm. For the resazurin assay, the fluorescence intensity was read using a PolarStar Omega plate reader (BMG Labtech; Mornington VIC, Australia) at excitation/emission 560/590 nm. All assays were performed at least three times. […] La Jolla, CA). Both MTT and resazurin assays were performed three times, with two technical replicates in each assay.
# [2] = Resazurin cytotoxicity assay in hRPTECs; format: cell-based, human; conditions: human, hRPTECs (passage 2); 72 h incubation; Mean ± Standard deviation, n = 3
# Experimental: as §1
# HK-2 cells = assay: MTT cytotoxicity assay in HK-2 cells; format: cell-based, human; conditions: 72 h incubation; Mean ± Standard deviation, n = 3
# Experimental: as §1
compound,measurement,setting,value
"N.N.[Cl][Pt][Cl] [Cisplatin, cisplatin]",Upregulation of KIM-1 in vivo,KIM-1,>5-fold (Vaidya et al. [2006])
same,Upregulation of M-CSF in vivo,M-CSF,+ (Razzaque and Taguchi [2002]; Menke et al. [2009])
"CNC(C)C1CCC(N)C(OC2C(N)CC(N)C(OC3OCC(C)(O)C(NC)C3O)C2O)O1 (centres unmarked) [Gentamicin, gentamicin sulfate]",CC50 at 72 h,[1],> 1000 µM
same,CC50 at 72 h,[2],> 1000 µM
Colistin sulfate,CC50,HK-2 cells,> 300 µM

# — paper PMC4492764, “Evaluation of biomarkers for in vitro prediction of drug-induced nephrotoxicity: comparison of HK-2, immortalized human proximal tubule epithelial, and primary cultures of human proximal tubular cells” (Pharmacology Research & Perspectives, 2015)
